These results are taken from patent US20180214506A1, “COMBINATION ADMINISTRATION OF GNRH ANTAGONISTS” (ANTEV LIMITED, priority 2017, published 2018).

What is called AUC(0-t) is exposure summed from dosing to a finite time, without extrapolation to infinity. Broadly, the Cmax is the peak of the concentration-time curve. The Tmax is the time from dosing to the highest level. In general, solubility refers to how much of the substance goes into solution per volume. A low value points to a poorly soluble substance.

≈ marks a conversion by molar mass, not a printed value. Structures can show the parent of a compound that is named as a salt. Where two headings read alike, the source gives them in different places. Non-standard residues stand in square brackets, D forms with d. Residues, ends and D or L forms follow the SMILES beside them. Phe(4-Cl) = N[C@@H](Cc1ccc(Cl)cc1)C(=O)O; dPhe(4-Cl) = N[C@H](Cc1ccc(Cl)cc1)C(=O)O; d2Nal = N[C@H](Cc1ccc2ccccc2c1)C(=O)O; d(hCit) = NC(=O)NCCCC[C@@H](N)C(=O)O; Lys(iPr) = CC(C)NCCCC[C@H](N)C(=O)O; d3Pal = N[C@H](Cc1cccnc1)C(=O)O

Data set [1] can be described thus: Phase I study D-84812-Z012, single s.c. injection: pharmacokinetics of teverelix. Format: in vivo, human.
Data set [2] can be described thus: Phase I study D-84812-Z012, single s.c. injection: safety and tolerability. In kind it is in vivo, human. The settings on record: doses up to 90 mg, 32 healthy male volunteers.
Data set [3] is described as follows: Phase II study 2 x 90 mg i.m. Days 1 and 8 (A014): plasma PK of teverelix. Format: in vivo. Conditions: male, human, im; for AUC(0-t) / Cmax / Tmax / AUC(0-inf) / half-life: 90 mg; for AUC(0-t): N=14, read-out: AUC (0-t) Geometric mean; for Cmax: N=14, read-out: Cmax (obs) Geometric mean; for Tmax: N=14, read-out: Tmax (obs) Median. As to the method:
In order to test the hypothesis that and IM injection of a GnRH antagonist could be useful as part of a prostate cancer regimen, a Phase II Multicenter, Open-label Study Investigating the Pharmacokinetics, Pharmacodynamics, Efficacy and Safety of a Teverelix 90 mg, TFA formulation was conducted.
(§1) The primary objective was to assess the duration of action of an initial “loading” dose regimen of Teverelix TFA delivered IM in terms of suppression of testosterone to below castrate level (0.5 ng/mL [2 nmol/L]). The secondary objectives were to assess the pharmacodynamics of teverelix in terms of ability to suppress and to maintain plasma testosterone levels below castration level (<0.5 ng/mL [2 nmol/L]) for 3 weeks; to assess the effects on luteinising hormone (LH) and prostate specific antigen (PSA); and to assess the safety of Teverelix in terms of incidence of local and systemic tolerability (adverse events [AEs] and changes in laboratory parameters).
(§2) This was a multicenter, open-label, non-controlled study in 14 patients diagnosed with advanced prostate cancer. Patients were screened for inclusion in the study between 1 and 7 days before first administration. Each patient received 2 intramuscular (i.m.) injections of 90 mg Teverelix TFA, 7 days apart, on Study Days 1 and 8. […] Blood samples were taken for the evaluation of teverelix, testosterone and LH in plasma, and PSA levels. Safety and tolerability were assessed throughout the study by monitoring local and systemic tolerability (AEs, clinical laboratory tests, vital signs an electrocardiogram [ECG]).
The geometric means for Cmax(obs), AUC(0-t), and AUC(0-∞) (along with respective coefficients of variations presented in parenthesis); Tmax median (along with the range of Tmax values presented in parenthesis); and arithmetic mean for T1/2,elim (along with standard deviation presented in parenthesis) are presented in Table 1 for each dose of teverelix IM.
The combined geometric means for AUC and AUC(∞) (along with respective coefficients of variations presented in parenthesis); and arithmetic mean for apparent clearance (CL/F) (along with standard deviation presented in parenthesis) for the two i.m. doses of teverelix are presented in Table 2.

A short description of data set [4]: Phase II study 2 x 90 mg i.m. (A014): tolerability. In kind it is in vivo, human. The settings on record: A014: i.m. 90 mg day 1 and 8. As to the method:
as §1, §2
(§3) Comparison of s.c. injection 90 mg days 1, 2 and 3 vs. IM injection day 1 and 8.

Data set [5] is described as follows: Water solubility of teverelix. Format: physicochemical. On the procedure:
In some instances, the GnRH antagonist can be teverelix ((Ac-D-NaID-pClPhe-D-Pal-Ser-Tyr-D-Hci-Leu-Lys(iPr)-Pro-D-Ala-NH2). Teverelix is a synthetic decapeptide with a water solubility of approximately 10 mg/mL.

Data set [6] can be described thus: Phase I study EP-24332T-A004, repeated s.c. injections: tolerability. In kind it is in vivo, human. The settings on record: 2 doses of 60 mg or 90 mg s.c. at 24 h or 48 h interval. As to the method: In a second Phase I study (EP-24332T-A004), a second injection was administered 24 h or 48 h after the first in order to increase and prolong the initial peak, as well as increase the teverelix level and consequently the number of subjects castrated. As the previous Phase I study had shown 10 mg and 30 mg to be insufficient to provide a long-term suppression, 2 doses of 60 mg or 90 mg (6 subjects per group) or placebo (4 subjects) were administered at a 24 h interval and 2 doses of 90 mg at a 48 h interval. […] No critical safety findings were reported. […] The protocol of the study included 6 subjects who received 90 mg Teverelix TFA on D1; D2; D3.

Data set [7] is described as follows: Clinical study A013, s.c. injection 90 mg days 1, 2 and 3: tolerability. The settings on record: A013: s.c. 90 mg days 1, 2 and 3. Format: in vivo, human. On the procedure: as §3
For data set [8] the following is noted: compared with degarelix; cited from earlier work.

Turning to `CC(=O)N[C@H](Cc1ccc2ccccc2c1)C(=O)N[C@H](Cc1ccc(Cl)cc1)C(=O)N[C@H](Cc1cccnc1)C(=O)N[C@@H](CO)C(=O)N[C@@H](Cc1ccc(O)cc1)C(=O)N[C@H](CCCCNC(N)=O)C(=O)N[C@@H](CC(C)C)C(=O)N[C@@H](CCCCNC(C)C)C(=O)N1CCC[C@H]1C(=O)N[C@H](C)C(N)=O` [Teverelix TFA, teverelix trifluoroacetate] (Ac-[d2Nal][dPhe(4-Cl)][d3Pal]SY[d(hCit)]L[Lys(iPr)]P[dA]-NH2), the dose proportionality entry in data set [1] (between the 60 mg and 90 mg doses, single s.c.) was “Dose proportionality was demonstrated”. In addition, the half-life was 10.5 to 13.8 days in data set [1] (human, plasma, sc, single s.c. injection, doses up to 90 mg, healthy male volunteers); 6.94 days in data set [3] (Day 1 (Dose 1): 1 x 90 mg i.m., n = 8, read-out: T1/2,elim Arithmetic mean (converted)); 16.9 days in data set [3] (Day 8 (Dose 2): 1 x 90 mg i.m., N=14, read-out: T1/2,elim Arithmetic mean (converted)). The tolerability entry is on record as “tolerated well” in data set [2] and “Very good/good for all patients” in data set [4]. In addition, the AUC(0-t) in data set [3] (Day 1 (Dose 1): 1 x 90 mg i.m.) came out at 1730 ng·h/mL; in data set [3] (Day 8 (Dose 2): 1 x 90 mg i.m.), 8360 ng·h/mL. Besides, the values for the highest concentration (Cmax) in data set [3] (Day 1 (Dose 1): 1 x 90 mg i.m.) and in data set [3] (Day 8 (Dose 2): 1 x 90 mg i.m.) were 21.5 ng/mL and 38 ng/mL, respectively. For the same compound, the Tmax in data set [3] (Day 1 (Dose 1): 1 x 90 mg i.m.) was found to be 2 h; in data set [3] (Day 8 (Dose 2): 1 x 90 mg i.m.), 1 h. Besides, the AUC(0-inf) in data set [3] (Day 1 (Dose 1): 1 x 90 mg i.m., n = 8, read-out: AUC (0-∞) Geometric mean) turned out to be 4610 ng·h/mL; in data set [3] (Day 8 (Dose 2): 1 x 90 mg i.m., N=14, read-out: AUC (0-∞) Geometric mean), 9380 ng·h/mL. Also, the CL/F in data set [3] (2 x 90 mg i.m., N=14, read-out: CL/F Arithmetic mean (converted)) was 249 mL/min.

For `CC(=O)N[C@H](Cc1ccc2ccccc2c1)C(=O)N[C@@H](Cc1ccc(Cl)cc1)C(=O)N[C@H](Cc1cccnc1)C(=O)N[C@@H](CO)C(=O)N[C@H](Cc1ccc(O)cc1)C(=O)N[C@H](CCCCNC(N)=O)C(=O)N[C@@H](CC(C)C)C(=O)N[C@@H](CCCCNC(C)C)C(=O)N1CCC[C@H]1C(=O)N[C@H](C)C(N)=O` [teverelix, Ac-D-NaID-pClPhe-D-Pal-Ser-Tyr-D-Hci-Leu-Lys(iPr)-Pro-D-Ala-NH2] (Ac-[d2Nal][Phe(4-Cl)][d3Pal]S[dY][d(hCit)]L[Lys(iPr)]P[dA]-NH2), the solubility in data set [5] was ~10000 µg/mL (≈ 6.85 mM). In addition, in data set [6], the “local reactions at the injection sites” value was “only mild local indurations at the injection sites” and the tolerability entry is listed as “tolerated well”. Besides, the tolerability result in data set [7] was “Very good/good for all patients”. Further, in data set [8], the “local irritation at the administration site” value is “less local irritation at the administration site than degarelix”.
